In PMC11514586, “Development of Novel ROCK Inhibitors via 3D-QSAR and Molecular Docking Studies: A Framework for Multi-Target Drug Design” (Pharmaceutics, 2024):

Assays:
Assay type in all cases: biochemical
ROCK2 [1] = target: T1, ROCK2 (Homo sapiens, UniProt O75116); experiment: radiometric […]-ATP kinase assay, single concentration […], percent inhibition
ROCK2 [2] = target: T1, ROCK2; experiment: radiometric […]-ATP P81 filter binding kinase assay, 10-dose IC50 ([…] ATP)
ROCK1 = ROCK1 (Homo sapiens, UniProt Q13464); experiment: as above
Sequence of ROCK1 (Q13464 2-1354): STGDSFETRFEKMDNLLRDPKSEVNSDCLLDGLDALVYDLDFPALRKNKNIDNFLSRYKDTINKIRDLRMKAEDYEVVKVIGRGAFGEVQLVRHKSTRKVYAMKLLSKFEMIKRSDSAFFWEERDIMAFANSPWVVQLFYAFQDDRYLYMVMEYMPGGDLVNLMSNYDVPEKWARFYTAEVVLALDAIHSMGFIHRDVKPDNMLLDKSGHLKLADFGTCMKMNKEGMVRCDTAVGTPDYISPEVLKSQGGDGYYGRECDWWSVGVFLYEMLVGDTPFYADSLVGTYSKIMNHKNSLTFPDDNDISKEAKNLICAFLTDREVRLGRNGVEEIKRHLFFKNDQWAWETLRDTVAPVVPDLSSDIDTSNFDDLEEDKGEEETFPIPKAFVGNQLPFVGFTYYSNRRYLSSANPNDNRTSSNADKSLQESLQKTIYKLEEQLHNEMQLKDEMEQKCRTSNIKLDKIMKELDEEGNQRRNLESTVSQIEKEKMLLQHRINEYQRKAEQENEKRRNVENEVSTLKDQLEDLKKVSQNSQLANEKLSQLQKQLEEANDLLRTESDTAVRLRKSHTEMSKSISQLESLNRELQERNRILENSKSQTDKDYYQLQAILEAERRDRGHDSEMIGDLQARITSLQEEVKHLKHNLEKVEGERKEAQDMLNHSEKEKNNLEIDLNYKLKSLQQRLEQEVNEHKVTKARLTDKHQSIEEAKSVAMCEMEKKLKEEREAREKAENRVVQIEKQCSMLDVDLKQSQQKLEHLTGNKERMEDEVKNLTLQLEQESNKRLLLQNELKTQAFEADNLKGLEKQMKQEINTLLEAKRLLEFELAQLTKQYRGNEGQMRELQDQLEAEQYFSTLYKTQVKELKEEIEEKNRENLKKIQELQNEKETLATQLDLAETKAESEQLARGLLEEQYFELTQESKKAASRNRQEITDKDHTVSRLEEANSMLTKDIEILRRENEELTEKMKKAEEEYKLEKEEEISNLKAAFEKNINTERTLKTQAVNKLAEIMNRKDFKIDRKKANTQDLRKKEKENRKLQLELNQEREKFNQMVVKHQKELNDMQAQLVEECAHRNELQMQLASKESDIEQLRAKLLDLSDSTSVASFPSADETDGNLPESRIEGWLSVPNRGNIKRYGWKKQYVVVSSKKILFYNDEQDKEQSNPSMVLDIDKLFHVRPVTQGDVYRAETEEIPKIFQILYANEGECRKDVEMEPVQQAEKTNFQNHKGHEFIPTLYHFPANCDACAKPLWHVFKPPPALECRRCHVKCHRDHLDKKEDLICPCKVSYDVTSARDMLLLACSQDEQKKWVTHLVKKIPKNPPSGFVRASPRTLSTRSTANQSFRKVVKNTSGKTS

T1 sequence (O75116 whole entry): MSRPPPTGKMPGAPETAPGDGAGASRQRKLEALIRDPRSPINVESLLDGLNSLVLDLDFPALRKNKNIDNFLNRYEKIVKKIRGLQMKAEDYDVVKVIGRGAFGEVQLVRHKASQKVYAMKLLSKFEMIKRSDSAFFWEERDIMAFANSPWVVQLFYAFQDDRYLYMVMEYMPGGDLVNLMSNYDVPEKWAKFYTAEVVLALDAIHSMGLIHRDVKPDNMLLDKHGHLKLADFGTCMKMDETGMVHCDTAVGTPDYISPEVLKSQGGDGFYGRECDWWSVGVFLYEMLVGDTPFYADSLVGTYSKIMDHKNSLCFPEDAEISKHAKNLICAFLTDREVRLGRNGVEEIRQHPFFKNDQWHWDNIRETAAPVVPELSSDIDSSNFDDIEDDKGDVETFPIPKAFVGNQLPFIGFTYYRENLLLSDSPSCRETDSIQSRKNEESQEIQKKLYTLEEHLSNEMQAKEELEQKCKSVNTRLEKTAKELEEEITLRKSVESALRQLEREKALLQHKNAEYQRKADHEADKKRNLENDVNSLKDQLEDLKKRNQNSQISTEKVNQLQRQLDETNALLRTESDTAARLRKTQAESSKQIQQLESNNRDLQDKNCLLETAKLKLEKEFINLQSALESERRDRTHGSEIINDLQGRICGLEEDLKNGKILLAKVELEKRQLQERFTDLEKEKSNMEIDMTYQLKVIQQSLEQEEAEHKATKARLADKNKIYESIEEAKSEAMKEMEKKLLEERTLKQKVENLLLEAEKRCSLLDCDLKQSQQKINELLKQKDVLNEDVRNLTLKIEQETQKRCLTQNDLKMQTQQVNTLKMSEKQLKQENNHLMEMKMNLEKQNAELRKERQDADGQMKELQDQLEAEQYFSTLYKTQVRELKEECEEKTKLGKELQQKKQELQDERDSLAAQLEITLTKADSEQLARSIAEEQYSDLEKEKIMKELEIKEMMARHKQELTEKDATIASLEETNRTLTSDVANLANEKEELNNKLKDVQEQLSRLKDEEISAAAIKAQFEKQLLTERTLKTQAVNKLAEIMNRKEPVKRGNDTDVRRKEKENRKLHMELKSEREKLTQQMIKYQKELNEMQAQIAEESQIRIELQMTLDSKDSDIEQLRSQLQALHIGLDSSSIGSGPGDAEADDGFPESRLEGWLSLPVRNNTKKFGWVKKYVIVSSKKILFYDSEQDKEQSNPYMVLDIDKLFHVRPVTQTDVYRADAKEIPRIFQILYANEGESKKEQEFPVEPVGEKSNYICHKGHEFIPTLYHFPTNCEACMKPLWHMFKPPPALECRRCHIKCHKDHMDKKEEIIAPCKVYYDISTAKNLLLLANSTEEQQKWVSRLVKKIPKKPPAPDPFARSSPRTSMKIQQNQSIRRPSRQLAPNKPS

| SMILES | inhibition at 10 µM (ROCK2 [1]) | IC50 (ROCK2 [2]) | IC50 (ROCK1) |
| --- | --- | --- | --- |
| COc1cc(CN2CCCN(C(=O)/C=C/c3ccncc3)CC2)ccc1O [C-22, 1-[4-(4-Hydroxy-3-methoxy-benzyl)-[1,4]diazepan-1-yl]-3-pyridin-4-yl-propenone] | 72.5% | – | – |
| Cc1cc(F)ccc1CN1CCCN(S(=O)(=O)c2cccc3cnccc23)CC1 [C-19, 5-[4-(4-Fluoro-2-methyl-benzyl)-[1,4]diazepane-1sulfonyl]-isoquinoline] | – | 6.13 µM | 4.22 µM |
